Here are results for 55 molecules from patent publication US20250154154A1 (Relay Binney Street, 2nd Floor, priority 2020, published 2025).

Some results are limits rather than exact numbers.

This assay has as its target SRC (Homo sapiens, UniProt P12931). Kind of assay: SRC Biochemical Assay Protocol (microfluidic mobility shift assay, FLPeptide4 substrate). As to the method: SRC Biochemical Assay Protocol
Src biochemical kinase activity was measured using a surrogate fluorescent peptide substrate [FLPeptide4; 5-FAM-EGIYGVLFKKK-CONH2 (PerkinElmer Cat. No. 760348)] with a microfluidic mobility shift assay. Reactions were performed in 384-well flat bottom polystyrene microplates (Corning Cat. No. 3570) at a final volume of 20 μL in 50 mM HEPES pH 7.4, 1 mM EGTA, 10 mM MgCl2, 0.01% Brij-35, 2 mM DTT, 0.05% BSA, 1% DMSO. Inhibition experiments were performed with compounds of the invention varying from 0.0017-100 μM with 0.26 nM SRC, 1.5 μM FLPeptide4, and 50 μM ATP. Specifically, 15 μl 1.3× mixtures of SRC+FLPeptide4+compounds were preincubated for 30 minutes at room temperature followed by addition of 5 μL 4×ATP. Reactions were carried out for 90 minutes then quenched with 40 μl 500 mM EDTA. Phosphorylated peptide product was measured with a mobility shift assay using a LabChip® EZ Reader system (PerkinElmer Cat. No. 122919). Inhibition ratios were calculated relative to neutral controls and IC50 values were obtained from dose response data fitted to a 4-parameter logistic model.
Broadly, the IC50 is the concentration that gives 50% inhibition. As for `C=CC(=O)N1CCC(N2CC(C#Cc3c(-c4ccc(Oc5cccc(C)n5)c(OC)c4)c4c(N)ncnc4n3C3CCOC3)C2)CC1` (stereo not shown) [II-125], the IC50 lay in the range of 0.01 to 1 µM.

As to `C=CC(=O)N1CCC(N2CC(C#Cc3c(-c4ccc(Oc5cccc(C)n5)c(OC)c4)c4c(N)ncnc4n3CC)C2)CC1` [II-121], the half-inhibitory concentration (IC50) lay in the range of 0.01 to 1 µM.

Consider `C=CC(=O)N1CCC(C#Cc2c(-c3ccc(Nc4ccccn4)cc3)c3c(N)ncnc3n2C(C)C)CC1` [Example I-9], for which the IC50 lay within 0.01 to 1 µM.

`C=CC(=O)N1CCC(N2CC(C#Cc3c(-c4ccc(Oc5ccccc5)cc4)c4c(N)ncnc4n3C)C2)C[C@@H]1CO` (stereo partly shown) [III-67]: the IC50 lay within 0.01 to 1 µM.

In the case of `C=CC(=O)N1CCC(C#Cc2c(-c3ccc(Oc4ccccc4)cc3)c3c(N)ncnc3n2CCCN(C)C)C1` (stereo not shown) [III-15], the half-maximal inhibitory concentration (IC50) fell in the range of 0.01 to 1 µM.

In the case of `C=CC(=O)N1CCC(N2CC(O)(C#Cc3c(-c4ccc(Oc5ccccc5)cc4)c4c(N)ncnc4n3C)C2)CC1` [III-23], the half-maximal inhibitory concentration (IC50) is 0.01 to 1 µM.

Consider `Cn1c(C#CC2CC3(C2)CN(C(=O)/C=C/CN2CCOCC2)C3)c(-c2ccc(Oc3ccccc3)cc2)c2c(N)ncnc21` [III-71], for which the IC50 lay in the range of 0.01 to 1 µM.

`C=CC(=O)N1CCC(O)(C#Cc2c(-c3ccc(Oc4ccccc4)c(Cl)c3)c3c(N)ncnc3n2C)CC1` [III-59]: the half-inhibitory concentration (IC50) fell in the range of 0.01 to 1 µM.

For the molecule `C=CC(=O)N1CCC(C#Cc2c(-c3ccc(Oc4cccc(Cl)c4)cc3)c3c(N)ncnc3n2C(C)C)CC1` [Example I-36], the concentration for half-maximal inhibition (IC50) lay in the range of 0.01 to 1 µM.

On to `CC(C)n1c(C#CC2CCOCC2)c(-c2ccc(Oc3ccccc3)cc2)c2c(N)ncnc21` [III-8], for which the IC50 lay in the range of 0.01 to 1 µM.

As to `CN(C)C/C=C/C(=O)N1CCC(C#Cc2c(-c3ccc(Oc4ccccc4)cc3)c3c(N)ncnc3n2C2CCOC2)CC1` (stereo not shown) [III-10], the IC50 fell in the range of 0.01 to 1 µM.

Regarding `C=CC(=O)N1CCC(C#Cc2c(-c3ccc(Oc4cccnc4)cc3)c3c(N)ncnc3n2C(C)C)CC1` [Example I-11], the 50% inhibitory concentration (IC50) was in the range of 0.01 to 1 µM.

With `Cn1c(C#CC2CCN(C(=O)/C=C/CN3CCOCC3)CC2)c(-c2ccc(Oc3ccccc3)cc2)c2c(N)ncnc21` [III-41], the half-inhibitory concentration (IC50) is 0.01 to 1 µM.

For `C=CC(=O)N1CCC(N2CC(C#Cc3c(-c4ccc(Oc5ccccc5)cc4)c4c(N)ncnc4n3C(C)CO)C2)CC1` (stereo not shown) [III-60], the IC50 was 0.01 to 1 µM.

As to `C=CS(=O)(=O)N1CC(C#Cc2c(-c3ccc(Oc4ccccc4)cc3)c3c(N)ncnc3n2C(C)C)C1` [Example I-17], the IC50 is ≤ 0.01 µM.

Take `C=CC(=O)N1CCC(C#Cc2c(-c3ccc(Nc4cccc(C)n4)cc3)c3c(N)ncnc3n2C(C)C)CC1` [Example I-22]: the IC50 lay within 0.01 to 1 µM.

With `CC(C)n1c(C#Cc2cnn(C)c2)c(-c2ccc(Oc3ccccc3)cc2)c2c(N)ncnc21` [III-7], the IC50 is 0.01 to 1 µM.

In the case of `C=CC(=O)N1CCC(C#Cc2c(-c3ccc(Oc4ncccn4)cc3)c3c(N)ncnc3n2C(C)C)CC1` [Example I-15], the IC50 is 0.01 to 1 µM.

Consider `C=CC(=O)N1CCC(C#Cc2c(-c3ccc(Oc4ccccc4)cc3)c3c(N)ncnc3n2[C@H](C)CO)CC1` (single isomer, unassigned) [Example I-24], for which the half-maximal inhibitory concentration (IC50) lay in the range of 0.01 to 1 µM.

On to `C=CC(=O)N1CCC(C#Cc2c(-c3ccc(Oc4cnccn4)cc3)c3c(N)ncnc3n2C(C)C)CC1` [Example I-14], for which the IC50 is 0.01 to 1 µM.

With `C=CC(=O)N1CCC(C#Cc2c(-c3ccc(C(C#N)c4ccccc4)cc3)c3c(N)ncnc3n2C(C)C)CC1` (stereo not shown) [Example I-30], the IC50 was 0.01 to 1 µM.

For the molecule `Cn1c(C#CC2CCNCC2)c(-c2ccc(Oc3ccccc3)cc2)c2c(N)ncnc21` [II-159, 7-methyl-5-(4-phenoxyphenyl)-6-(piperidin-4-ylethynyl)-7H-pyrrolo[2,3-d]pyrimidin-4-amine], the concentration for half-maximal inhibition (IC50) was 0.01 to 1 µM.

In the case of `C=CS(=O)(=O)N1CCC(C#Cc2c(-c3ccc(Oc4ccccc4)cc3)c3c(N)ncnc3n2C(C)C)CC1` [Example I-37], the IC50 is ≤ 0.01 µM.

Regarding `COC(=O)C(C)N1CCC(C#Cc2c(-c3ccc(Oc4ccccc4)cc3)c3c(N)ncnc3n2C(C)C)CC1` (stereo not shown) [II-148, methyl 2-(4-((4-amino-7-isopropyl-5-(4-phenoxyphenyl)-7H-pyrrolo[2,3-d]pyrimidin-6-yl)ethynyl)piperidin-1-yl)propanoate], the half-maximal inhibitory concentration (IC50) was 0.01 to 1 µM.

As for `C=CC(=O)N[C@H]1CC[C@H](C#Cc2c(-c3ccc(Oc4cccc(C)n4)c(OC)c3)c3c(N)ncnc3n2C)CC1` [III-4], the IC50 was in the range of 0.01 to 1 µM.

Consider `C=CC(=O)N1CCC(N2CC(C#Cc3c(-c4ccc(Oc5cccc(C)n5)c5c4OCO5)c4c(N)ncnc4n3C)C2)CC1` [III-90], for which the half-maximal inhibitory concentration (IC50) lay within 0.01 to 1 µM.

For `C=CC(=O)N1CC2C(C#Cc3c(-c4ccc(Oc5ccccc5)cc4)c4c(N)ncnc4n3C)C2C1` (stereo not shown) [III-52], the IC50 was in the range of 0.01 to 1 µM.

Take `C=CC(=O)N1CCC(N2CC(C#Cc3c(-c4ccc(Oc5ccccc5)cc4OC)c4c(N)ncnc4n3C)C2)CC1` [III-80]: the IC50 lay within 0.01 to 1 µM.

For `C=CC(=O)N1CCC(N2CC(C#Cc3c(-c4ccc(Oc5cccc(C)n5)c(OC)c4)c4c(N)ncnc4n3C3CCOC3)C2)CC1` (stereo not shown) [III-91], the concentration for half-maximal inhibition (IC50) was in the range of 0.01 to 1 µM.

On to `C=CC(=O)N1CCC(N2CC(C#Cc3c(-c4ccc(Oc5ccccc5)c(C)c4)c4c(N)ncnc4n3C)C2)CC1` [III-83], for which the half-inhibitory concentration (IC50) lay in the range of 0.01 to 1 µM.

Consider `C=CC(=O)N1C[C@@H]2[C@@H](C#Cc3c(-c4ccc(Oc5ccccc5)c5c4OCO5)c4c(N)ncnc4n3C)[C@@H]2C1` [III-88], for which the IC50 was ≤ 0.01 µM.

For `C=CC(=O)N1CCC(C#Cc2c(-c3ccc(Oc4ccccc4)nc3)c3c(N)ncnc3n2C(C)C)CC1` [Example I-10], the IC50 lay in the range of 0.01 to 1 µM.

On to `C=CS(=O)(=O)NC1CCC(C#Cc2c(-c3ccc(Oc4ccccc4)cc3)c3c(N)ncnc3n2C(C)C)CC1` (stereo not shown) [Example I-43], for which the IC50 is ≤ 0.01 µM.

For `C=CC(=O)N1CCC(C#Cc2c(-c3cnc(Oc4ccccc4)nc3)c3c(N)ncnc3n2C(C)C)CC1` [Example I-13], the concentration for half-maximal inhibition (IC50) lay within 1 to 10 µM.

`C=CC(=O)N1CCC(N2CC(C#Cc3c(-c4ccc(Oc5ccccc5)cc4)c4c(N)ncnc4n3[C@@H]3CCOC3)C2)CC1` [III-55]: the 50% inhibitory concentration (IC50) is ≤ 0.01 µM.

As to `C=CC(=O)N1CC(C#Cc2c(-c3ccc(Oc4ccccc4)cc3)c3c(N)ncnc3n2C(C)C)C1` [Example I-3], the IC50 is ≤ 0.01 µM.

Consider `C=CC(=O)N1CCC(C#Cc2c(-c3ccc(Oc4cccc(F)c4)cc3)c3c(N)ncnc3n2C(C)C)CC1` [Example I-28], for which the IC50 is 0.01 to 1 µM.

As to `C=CC(=O)N1CCCC(N2CC(C#Cc3c(-c4ccc(Oc5ccccc5)cc4)c4c(N)ncnc4n3C)C2)CC1` (stereo not shown) [III-56], the IC50 lay in the range of 0.01 to 1 µM.

In the case of “N-[(1r,4r)-4-[2-[4- amino-7-(2- hydroxyethyl)-5- [3-methoxy-4-[(6- methylpyridin-2- yl)oxy]phenyl]- 7H-pyrrolo[2,3- d]pyrimidin-6- yllethynyl] cyclohexyl] prop-2- enamide [II-311]”, the IC50 is ≤ 0.01 µM.

For `Cn1c(C#CC2(O)CCN(C(=O)/C=C/CN3CCC3)CC2)c(-c2ccc(Oc3ccccc3)cc2)c2c(N)ncnc21` [III-50], the IC50 was 0.01 to 1 µM.

`CC(Cl)C(=O)N1CCC(C#Cc2c(-c3ccc(Oc4ccccc4)cc3)c3c(N)ncnc3n2C(C)C)CC1` (stereo not shown) [Example I-39]: the half-maximal inhibitory concentration (IC50) was in the range of 0.01 to 1 µM.

In the case of `C=CC(=O)N1CCC(N2CC(C#Cc3c(-c4ccc(Oc5ccccc5)cc4)c4c(N)ncnc4n3C)C2)C[C@H]1C` (stereo partly shown) [III-46], the IC50 lay within 0.01 to 1 µM.

As for `C=CC(=O)N1CCC(O)(C#Cc2c(-c3ccc(Oc4ccccc4)c(F)c3)c3c(N)ncnc3n2C)CC1` [III-62], the half-maximal inhibitory concentration (IC50) lay within 0.01 to 1 µM.

As to `C=CC(=O)N1CCC(C#Cc2c(-c3ccc(Oc4ccccc4)cc3)c3c(N)ncnc3n2[C@@H](C)CO)CC1` (single isomer, unassigned) [Example I-26], the half-inhibitory concentration (IC50) fell in the range of 0.01 to 1 µM.

For `C=CC(=O)N(C)CC(=O)N1CCC(C#Cc2c(-c3ccc(Oc4ccccc4)cc3)c3c(N)ncnc3n2C)CC1` [III-43], the half-inhibitory concentration (IC50) was 0.01 to 1 µM.

`C=CC(=O)N1CCC(N2CC(C#Cc3c(-c4ccc(Oc5ccccc5)cc4)c4c(N)ncnc4n3[C@H]3C[C@H](O)C3)C2)CC1` [III-68]: the 50% inhibitory concentration (IC50) fell in the range of 0.01 to 1 µM.

Turning to `C=CC(=O)N1CCC(C#Cc2c(-c3ccc(Oc4ccccc4)cc3)c3c(N)ncnc3n2C(C)C(=O)O)CC1` (stereo not shown) [Example I-34], the half-maximal inhibitory concentration (IC50) is 1 to 10 µM.

Consider `C=CC(=O)N1CCC(N2CC(C#Cc3c(-c4ccc(Oc5ccccc5)cc4F)c4c(N)ncnc4n3C)C2)CC1` [III-82], for which the IC50 lay in the range of 0.01 to 1 µM.

For `C=CC(=O)N[C@H](C)C(=O)N1CCC(C#Cc2c(-c3ccc(Oc4ccccc4)cc3)c3c(N)ncnc3n2C2CCOC2)CC1` (stereo partly shown) [III-76], the IC50 was ≤ 0.01 µM.

For `C=CC(=O)N1CCC(N2CC(C#Cc3c(-c4ccc(Oc5ccccc5)c5c4OCO5)c4c(N)ncnc4n3C)C2)CC1` [III-85], the IC50 was ≤ 0.01 µM.

`C=CC(=O)N1CCC(C#Cc2c(-c3ccc(OCC4CCCC4)cc3)c3c(N)ncnc3n2C(C)C)CC1` [Example I-16]: the concentration for half-maximal inhibition (IC50) is 0.01 to 1 µM.

Consider `C=CC(=O)N1CCC(N2CC(C#Cc3c(-c4ccc(Oc5ccccc5)cc4)c4c(N)ncnc4n3C3CCOC3)C2)CC1` (stereo not shown) [III-53], for which the half-maximal inhibitory concentration (IC50) is ≤ 0.01 µM.

Regarding `CC#CC(=O)N1CCC(C#Cc2c(-c3ccc(Oc4ccccc4)cc3)c3c(N)ncnc3n2C(C)C)CC1` [Example I-18], the IC50 was 0.01 to 1 µM.

Regarding `C=CC(=O)N1CC[C@@H](C#Cc2c(-c3ccc(Oc4ccccc4)cc3)c3c(N)ncnc3n2C)C[C@@H]1C` [III-79], the half-inhibitory concentration (IC50) was in the range of 0.01 to 1 µM.

On to `C=CC(=O)N1CCC(N2CC(C#Cc3c(-c4ccc(Oc5ccccc5)cc4)c4c(N)ncnc4n3C)C2)C[C@@H]1C` (stereo partly shown) [III-47], for which the concentration for half-maximal inhibition (IC50) fell in the range of 0.01 to 1 µM.
